For assay [1], the system named is HUVEC. The conditions noted are these: 20 µM; cited from earlier work.
The subject of assay [2] is HUVEC. The conditions noted are these: 20 µM; cited from earlier work. This is another data set of the same source.
Assay [3] has as its system HUVEC. The assay is classed as cell-based, human.

The source of these data is article PMC3371172 (Chemical biology & drug design, 2012).

Non-standard residues stand in square brackets, D forms with d. Residues, ends and D or L forms follow the SMILES beside them. No end group written: not given here.

Broadly, the IC50 is the concentration that inhibits the measured activity by half. A lower IC50 goes with greater potency in that assay.

Consider LRRFSTMPFMFCNINNVCNF [SP2000], for which the “inhibition of HUVEC proliferation” value in assay [1] is on record as 70%. In addition, in assay [2], the “inhibition of HUVEC migration” value is listed as 60%. In assay [3], `CC[C@H](C)[C@H](NC(=O)[C@H](CC(N)=O)NC(=O)[C@@H](NC(=O)[C@H](Cc1ccccc1)NC(=O)[C@@H](C)NC(=O)[C@H](Cc1ccccc1)NC(=O)[C@@H]1CCCN1C(=O)[C@H](CCSC)NC(=O)[C@@H](NC(=O)[C@H](CO)NC(=O)[C@H](Cc1ccccc1)NC(=O)[C@H](CCCNC(=N)N)NC(=O)[C@H](CCCNC(=N)N)NC(=O)[C@@H](N)CC(C)C)[C@@H](C)O)[C@@H](C)CC)C(=O)N[C@@H](CC(N)=O)C(=O)N[C@@H](CC(N)=O)C(=O)N[C@H](C(=O)N[C@H](C(=O)N[C@@H](CC(N)=O)C(=O)N[C@@H](Cc1ccccc1)C(N)=O)[C@@H](C)CC)C(C)C` [SP2034] (H-LRRFSTMPF[dA]FININNVINF-NH2) had an IC50 of 0.54 ± 0.19 µM. On the same count and under the same terms, the same measure for LRRFSTMPFMFININNVINF-NH2 [SP2024]: 7.45 ± 5.7 µM.
